Experimental data taken from the NIST ThermoML archive (doi:10.1016/j.jct.2014.06.012).
Numbers after ± are expanded uncertainties.

Assay: Molar enthalpy of transition or fusion
Settings: Adiabatic calorimetry

O=P([O-])([O-])[O-].[Cs+].[Mn+2] [cesium manganese(II) phosphate]
Molar enthalpy of transition or fusion (Crystal 2): 0.038 ± 0.000669 kcal/mol
Molar enthalpy of transition or fusion (Crystal 3): 0.00306 ± 9.56e-05 kcal/mol
